Assay [1] concerns the target T1, MALT1 (Homo sapiens, UniProt Q9UDY8).
T1 construct: Avi-tagged FL MALT-1 (Pharmaron, stored at −70° C.); Avi tag
T1 sequence (Q9UDY8 1-824): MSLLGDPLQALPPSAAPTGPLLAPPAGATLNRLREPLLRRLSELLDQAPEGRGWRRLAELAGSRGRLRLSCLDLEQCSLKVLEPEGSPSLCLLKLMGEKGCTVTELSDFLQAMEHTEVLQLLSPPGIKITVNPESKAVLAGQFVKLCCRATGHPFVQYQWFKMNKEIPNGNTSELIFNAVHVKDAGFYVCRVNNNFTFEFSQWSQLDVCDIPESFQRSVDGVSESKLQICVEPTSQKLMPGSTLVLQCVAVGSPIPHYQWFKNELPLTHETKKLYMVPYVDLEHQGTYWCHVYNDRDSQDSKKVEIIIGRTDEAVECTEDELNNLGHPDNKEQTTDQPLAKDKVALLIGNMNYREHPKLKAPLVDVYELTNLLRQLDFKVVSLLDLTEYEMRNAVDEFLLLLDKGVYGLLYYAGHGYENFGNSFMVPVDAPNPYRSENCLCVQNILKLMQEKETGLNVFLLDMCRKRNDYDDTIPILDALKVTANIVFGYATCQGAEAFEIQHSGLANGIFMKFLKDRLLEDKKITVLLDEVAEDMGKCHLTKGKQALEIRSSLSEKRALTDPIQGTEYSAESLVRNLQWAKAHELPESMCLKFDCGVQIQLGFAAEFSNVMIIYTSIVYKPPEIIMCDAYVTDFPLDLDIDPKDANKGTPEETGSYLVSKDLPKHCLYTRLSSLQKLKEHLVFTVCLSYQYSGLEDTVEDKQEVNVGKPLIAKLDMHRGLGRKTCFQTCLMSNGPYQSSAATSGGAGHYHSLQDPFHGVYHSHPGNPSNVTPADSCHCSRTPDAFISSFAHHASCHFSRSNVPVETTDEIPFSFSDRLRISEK
Nature of the assay: MALT-1 Fluorogenic Peptide Cleavage Assay (MALT1 inhibition assay). Conditions: Avi-tagged FL MALT-1, Ac-LRSR-AMC peptide substrate, 30 min pre-incubation, 90 min reaction. The format is biochemical. As to the method: Inhibition of MALT1 activity by the presence of small molecules was evaluated using MALT-1 Fluorogenic Peptide Cleavage Assay. The assay utilizes a quenched AMC-labelled peptide that contains the MALT-1 recognition sequence and cleavage site (LRSR). MALT-1 mediated cleavage of the peptide relieves the quenching and leads to an increase in fluorescence at excitation (342 nm) and emission (441 nm). The following reagents were obtained commercially and used to prepare standard reagent formulations as further described below: […] The standard reagent formulations used in this assay were prepared and stored as follows. A 1.1 M solution of sodium citrate (161.3 g, 500 mL) was prepared and stored at room temperature. A 10% (w/v) CHAPS solution (2.0 g, 20 mL) was prepared and stored at 4° C. A 500 mM HEPES solution having pH of 6.89 was prepared from 200 mL of a 1 M HEPES solution having a pH of 7.5 using concentrated hydrochloric acid and brought to a final volume of 400 mL with […]® H2O. The substrate, 10 mM Ac-LRSR-AMC Peptide, was prepared (10 mg, 1.370 mL DMSO) and stored at -20° C. Compounds were plated to provide a 2% DMSO final concentration using a ProxiPlate-384 Plus F Black 384-shallow well microplate. The assay-ready plates were equilibrated to room temperature. […] DMSO was added only when compound plates had not been DMSO-backfilled to 2%. MALT-1 was thawed and kept on ice. Peptide substrate was thawed on the bench under ambient conditions. A MALT-1 enzyme working stock was prepared from Avi-tagged FL MALT-1 (40 nM in a prepared reagent volume of 16.5 μL) and the reaction buffer (13.0 mL). MALT1 working stock (5 μL) was added to each well of the microplate. MALT-1 was pre-incubated with compounds for 30 minutes at room temperature. […] The plates were covered and incubated on the bench at room temperature for 90 minutes. Fluorescence intensity was determined using a CLARIOstar microplate reader (BMG LABTECH) using the optimised AMC mode. Before taking readings, a 70% gain was applied on the neutral control well. Compound data were normalised to % Inhibition and used to plot sigmoidal concentration response curves to yield various parameters including IC50. […] Compounds in which an IC50 was not measured are designated as “N/A”.

The test system of assay [2] is NF-kB. Kind of assay: NF-kB reporter assay in Jurkat cells stimulated with aCD3/aCD28/PMA. The format is cell-based. Conditions: Homo sapiens, Jurkat, Jurkat cells, 1 hr compound incubation, aCD3/aCD28/PMA stimulation 4 hr, One-Glo readout; read-out: NF-kB Reporter Assay IC50. How it is done: Jurkat cells were maintained in complete RPMI 1640 media supplemented with 10% FBS. Prior to the assay, 120 nL of the serial diluted compound was added in each well of 384-well flat bottom white plate (Corning #3570) by using liquid handler Echo550. Jurkat cells were harvested by centrifugation at 120 g for 10 min and resuspended in fresh RPMI 1640 media without serum. 30 μL of cells (25,000 cells) were seeded in each well of 384-well plate containing compound. After 1 hr incubation at 37° C. in a 5% CO2 incubator, 10 μL of diluted aCD3/aCD28/PMA (final concentration at 5 μg/mL, 5 μg/mL and 0.03 μg/mL, respectively) in RPMI 1640 without serum were added to each well. After incubation at 37° C. in 5% CO2 for 4 hr, 30 μL of One-Glo reagent (Promega #E6120) was added into each well. The plate was left at room temperature for 5 min and the signal was measured on EnVision (PerkinElmer).
Compounds in which an IC50 was not measured are designated as “N/A”.

With `Cc1cc(C(F)(F)F)nn1-c1ccc(S(=O)(=O)Nc2cccc3cnn(C)c23)cn1` [Example I-43, 6-[5-Methyl-3-(Trifluoromethyl)Pyrazol-1-Yl]-N-(1-Methylindazol-7-yl)Pyridine-3-Sulfonamide], the results for the IC50 in assay [1] and in assay [2] were 1000 to 2500 nM and less than 400 nM, respectively.
Turning to `Cc1cn(-c2ccc(S(=O)(=O)Nc3cccc4cnn(C)c34)cn2)nc1C(F)(F)F` [Example I-44, 6-[4-Methyl-3-(Trifluoromethyl)Pyrazol-1-Yl]-N-(1-Methylindazol-7-yl)Pyridine-3-Sulfonamide], the half-maximal inhibitory concentration (IC50) (in general, the point on the concentration scale where inhibition reaches its midpoint) is 400 to 1000 nM in assay [1] and less than 400 nM in assay [2].
Turning to `COc1ccc2cnn(C)c2c1N(C)S(=O)(=O)c1ccc(-c2cc(C(F)(F)F)n[nH]2)nc1` [Example I-48, N-(6-Methoxy-1-Methyl-1H-Indazol-7-yl)-N-Methyl-6-(3-(Trifluoromethyl)-1H-Pyrazol-5-yl)Pyridine-3-Sulfonamide], the IC50 in assay [1] and in assay [2] was less than 400 nM each time.
As for `COc1ccc2cnn(C)c2c1NS(=O)(=O)c1ccc(-c2cc(C(F)(F)F)n(C)n2)nc1` [Example I-49, N-(6-Methoxy-1-Methyl-1H-Indazol-7-yl)-6-(1-Methyl-5-(Trifluoromethyl)-1H-Pyrazol-3-yl)Pyridine-3-Sulfonamide], the IC50 in assay [1] and in assay [2] was less than 400 nM in each case.
For the compound `Cn1ncc2cccc(NS(=O)(=O)c3ccc(-n4cc(C(F)F)cn4)nc3)c21` [Example I-50, 6-[4-(Difluoromethyl)Pyrazol-1-Yl]-N-(1-Methylindazol-7-yl)Pyridine-3-Sulfonamide], the IC50 is 400 to 1000 nM in assay [1] and less than 400 nM in assay [2].
The like results for `Cn1ncc2cccc(NS(=O)(=O)c3ccc(-n4ccc(C(F)F)n4)nc3)c21` [Example I-51, 6-[3-(Difluoromethyl)Pyrazol-1-Yl]-N-(1-Methylindazol-7-yl)Pyridine-3-Sulfonamide] were, in that order, 1000 to 2500 nM and less than 400 nM.
For `Cc1cnn(-c2ccc(S(=O)(=O)Nc3cccc4cnn(C)c34)cn2)n1` [Example I-52, N-(1-Methyl-1H-Indazol-7-yl)-6-(4-Methyl-2H-1,2,3-Triazol-2-yl)Pyridine-3-Sulfonamide], the IC50 in assay [1] is more than 2500 nM; in assay [2] it was 1000 to 2500 nM.
The corresponding values for `Cc1cn(-c2ccc(S(=O)(=O)Nc3cccc4cnn(C)c34)cn2)nn1` [Example I-53, 6-(4-Methyl-1H-1,2,3-Triazol-1-yl)-N-(1-Methyl-1H-Indazol-7-yl)Pyridine-3-Sulfonamide] are more than 2500 nM and 400 to 1000 nM.
The like results for `Cn1ncc2cccc(NS(=O)(=O)c3ccc(-n4cc(C5(F)CC5)cn4)nc3)c21` [Example I-55] were, in that order, more than 2500 nM and less than 400 nM.
The like results for `Cn1ncc2cccc(NS(=O)(=O)c3ccc(-n4cc(C5(O)CC5)cn4)nc3)c21` [Example I-56, 6-(4-(1-hydroxycyclopropyl)-1H-pyrazol-1-yl)-N-(1-methyl-1H-indazol-7-yl)pyridine-3-sulfonamide] were, in that order, more than 2500 nM and less than 400 nM.
Take `Cc1cnn(-c2ccc(S(=O)(=O)Nc3cccc4cnn(C)c34)cn2)c1C` [Example I-57, 6-(4,5-Dimethylpyrazol-1-yl)-N-(1-Methylindazol-7-yl)Pyridine-3-Sulfonamide]: the IC50 is more than 2500 nM in assay [1] and less than 400 nM in assay [2].
The like results for `Cc1cn(-c2ccc(S(=O)(=O)Nc3cccc4cnn(C)c34)cn2)nc1C` [Example I-58, 6-(3,4-Dimethylpyrazol-1-yl)-N-(1-Methylindazol-7-yl)Pyridine-3-Sulfonamide] were, in that order, 1000 to 2500 nM and less than 400 nM.
In the case of `Cc1nn(-c2ccc(S(=O)(=O)Nc3cccc4cnn(C)c34)cn2)c(C)c1C` [Example I-59, N-(1-Methyl-1H-Indazol-7-yl)-6-(3,4,5-Trimethyl-1H-Pyrazol-1-yl)Pyridine-3-Sulfonamide], the results for the IC50 in assay [1] and in assay [2] were more than 2500 nM and less than 400 nM, respectively.
The like results for `Cn1ncc2cccc(NS(=O)(=O)c3ccc(-n4nccc4C4CC4)nc3)c21` [Example I-62, 6-(5-Cyclopropylpyrazol-1-yl)-N-(1-Methylindazol-7-yl)Pyridine-3-Sulfonamide] were, in that order, more than 2500 nM and less than 400 nM.
The like results for `Cc1ccc2cnn(C)c2c1NS(=O)(=O)c1ccc(-c2cc(C(F)(F)F)n[nH]2)nc1` [Example I-63, N-(1,6-dimethyl-1H-indazol-7-yl)-6-(5-(trifluoromethyl)-1H-pyrazol-3-yl)pyridine-3-sulfonamide] were, in that order, less than 400 nM and less than 400 nM.
For the compound `Cn1nnc2cccc(NS(=O)(=O)c3ccc(-n4cc(C(F)(F)F)cn4)nc3)c21` [Example I-64, N-(1-Methyl-1H-Benzo[D][1,2,3]Triazol-7-yl)-6-(4-(Trifluoromethyl)-1H-Pyrazol-1-yl)Pyridine-3-Sulfonamide], the IC50 in assay [1] and in assay [2] was more than 2500 nM each time.
For `Cc1cc(S(=O)(=O)Nc2cccc3cnn(C)c23)cnc1-n1cc(C(F)(F)F)cn1` [Example I-65, 5-Methyl-N-(1-Methyl-1H-Indazol-7-yl)-6-(4-(Trifluoromethyl)-1H-Pyrazol-1-yl)Pyridine-3-Sulfonamide], the IC50 in assay [1] is 1000 to 2500 nM; in assay [2], less than 400 nM.
As for `[2H]C([2H])([2H])Oc1ccc2cnn(C)c2c1NS(=O)(=O)c1ccc(-n2cc(C(F)(F)F)cn2)nc1` [Example I-68, N-(6-(Methoxy-D3)-1-Methyl-1H-Indazol-7-yl)-6-(4-(Trifluoromethyl)-1H-Pyrazol-1-yl)Pyridine-3-Sulfonamide], the IC50 in assay [1] and in assay [2] was less than 400 nM each time.
On to `[2H]C([2H])([2H])c1ccc2cnn(C)c2c1NS(=O)(=O)c1ccc(-n2cc(C(F)(F)F)cn2)nc1` [Example I-69, N-(1-Methyl-6-(Methyl-Ds)-1H-Indazol-7-yl)-6-(4-(Trifluoromethyl)-1H-Pyrazol-1-yl)Pyridine-3-Sulfonamide], for which the IC50 in assay [1] and in assay [2] was less than 400 nM each time.
For `[2H]C([2H])(C)c1ccc2cnn(C)c2c1NS(=O)(=O)c1ccc(-n2cc(C(F)(F)F)cn2)nc1` [Example I-70, N-(6-(Ethyl-1,1-D2)-1-Methyl-1H-Indazol-7-yl)-6-(4-(Trifluoromethyl)-1H-Pyrazol-1-yl)Pyridine-3-Sulfonamide], the IC50 in assay [1] and in assay [2] was less than 400 nM throughout.

(Values after patent US20240150365A1 (Hotspot Therapeutics, Inc., priority 2022, published 2024).)
